Measured values published in US12187709B2 (Genentech, Inc., priority 2021, dated 2025).

Tests used:
[1] = molecular target: c-Cbl (residues 47-435) (Homo sapiens (Human), UniProt P22681); assay: c-Cbl SPR assay; format: binding; conditions: 20° C.
Outline: (§1)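 Values derive from a 1:1 model fitted to multicycle kinetics on captured protein (1300-1500 RU), using six 2-fold concentrations, 60 s contact and dissociation of 120-1200 s. In the chaser format, kd comes from a single-exponential fit of % site occupancy over time.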

[2] = molecular target: Cbl-b (Homo sapiens (Human), UniProt Q13191); assay: Cbl-b LCK Ub TR-FRET assay (Cbl-b Lck HTRF); format: biochemical; conditions: for IC50: Cbl-b LCK Ub TR-FRET; for fold-selectivity (Cbl-b over C-cbl): ratio C-cbl Lck HTRF IC50 / Cbl-b Lck HTRF IC50
Outline: (§2)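 After the ubiquitination reaction, detection mixture was added and plates incubated 20 min at room temperature before reading. IC50 values were calculated with wells lacking LCK as the low control and DMSO as the high control.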

[3] = molecular target: Human Cbl-b (residues 40-426) (Homo sapiens (Human), UniProt Q13191); assay: Cbl-b SPR assay; format: binding; conditions: for Kd: SPR, 20° C.; for Fold of selectivity: C-cbl SPR Kd vs Cbl-b SPR Kd
Outline: as §1

[4] = molecular target: c-Cbl (Homo sapiens (Human), UniProt P22681); assay: C-Cbl LCK Ub TR-FRET assay (C-cbl Lck HTRF); format: biochemical
Outline: as §2

c-Cbl, sequence (P22681 47-435): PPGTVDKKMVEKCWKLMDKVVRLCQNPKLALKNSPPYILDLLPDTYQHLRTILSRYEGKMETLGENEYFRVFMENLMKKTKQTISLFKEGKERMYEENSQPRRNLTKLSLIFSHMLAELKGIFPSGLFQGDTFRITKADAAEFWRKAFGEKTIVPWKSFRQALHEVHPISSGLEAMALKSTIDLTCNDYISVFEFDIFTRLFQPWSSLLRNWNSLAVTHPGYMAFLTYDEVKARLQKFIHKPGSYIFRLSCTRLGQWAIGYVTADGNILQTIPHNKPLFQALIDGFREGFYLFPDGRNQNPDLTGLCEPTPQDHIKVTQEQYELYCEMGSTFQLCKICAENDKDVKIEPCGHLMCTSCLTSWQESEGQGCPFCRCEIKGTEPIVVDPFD
c-Cbl (residues 47-435), sequence (P22681 47-435): as above
Human Cbl-b (residues 40-426), sequence (Q13191 40-426): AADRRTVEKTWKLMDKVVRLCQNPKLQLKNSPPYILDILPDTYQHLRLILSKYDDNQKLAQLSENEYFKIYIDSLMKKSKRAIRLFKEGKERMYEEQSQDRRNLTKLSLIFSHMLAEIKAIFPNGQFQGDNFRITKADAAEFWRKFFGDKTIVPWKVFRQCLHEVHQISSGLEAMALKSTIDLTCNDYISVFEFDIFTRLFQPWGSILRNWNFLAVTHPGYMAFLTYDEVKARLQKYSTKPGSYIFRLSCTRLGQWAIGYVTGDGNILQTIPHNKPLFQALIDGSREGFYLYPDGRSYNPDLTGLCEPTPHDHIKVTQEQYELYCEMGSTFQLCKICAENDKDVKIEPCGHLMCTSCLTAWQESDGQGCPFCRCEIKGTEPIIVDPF
Cbl-b, sequence (Q13191 40-426): as above

Kd [1] [nM] | IC50 [2] [nM] | Kd [3] [nM] | IC50 [4] [nM] | fold-selectivity (Cbl-b over C-cbl) [2] [x] | Fold of selectivity [3] [×] | Compound
56 | 39 | 26 | 41 | 1.0 | 2.2 | Cc1cc([C@@H](c2nncn2C)C2COC2)cc(N2Cc3c(cc(CNC4(C)CCC4)cc3C(F)(F)F)C2=O)c1 (single isomer, unassigned) [Compound 333]
4.2 | 5.6 | 1.7 | 6.3 | 1.1 | 2.5 | COc1cc([C@@H](c2nncn2C)C2COC2)cc(N2Cc3c(cc(CNC4(C)CCC4)cc3C(F)(F)F)C2=O)c1 (single isomer, unassigned) [Compound 339]
1.2 | 5.6 | 0.5 | 6.6 | 1.2 | 2.4 | Cn1cnnc1[C@@H](c1cccc(N2Cc3c(cc(CNC4(C)CCC4)cc3C(F)(F)F)C2=O)c1)C1CC1 (single isomer, unassigned) [Compound 342]
2800 | 290 | 440 | 610 | 2.1 | 6.4 | Cn1cnnc1[C@H](c1cccc(N2Cc3c(cc(CNC4(C)CCC4)cc3C(F)(F)F)C2=O)c1)C1CC1 (single isomer, unassigned) [Compound 343]
4100 | 2400 | 1300 | 11000 | 4.4 | 3 | Cn1cnnc1[C@H](c1cccc(N2Cc3c(cc(CNC4(C)CCC4)cc3C(F)(F)F)C2=O)c1)n1ccnc1 (single isomer, unassigned) [Compound 345]
630 | 140 | 75 | 500 | 3.5 | 8.4 | Cn1nnnc1[C@@H](c1cccc(N2Cc3c(cc(CNC4(C)CCC4)cc3C(F)(F)F)C2=O)c1)C1COC1 (single isomer, unassigned) [Compound 348]
19 | 6.4 | 1.2 | 20 | 6.4 | 16 | Cn1cnnc1C1(c2cccc(N3Cc4c(cc(CNC5(C)CCC5)cc4C(F)(F)F)C3=O)c2)CC(OC(F)(F)F)C1 (single isomer, unassigned) [Compound 351, 2-(3-((1r,3r)-1-(4-methyl-4H-1,2,4-triazol-3-yl)-3-(trifluoromethoxy)cyclobutyl)phenyl)-6-(((1-methylcyclobutyl)amino)methyl)-4-(trifluoromethyl)isoindolin-1-one]
270 | 69 | 34 | 280 | 4.1 | 7.6 | Cn1ccnc1[C@@H](c1cccc(N2Cc3c(cc(CNC4(C)CCC4)cc3C(F)(F)F)C2=O)c1)C1COC1 (single isomer, unassigned) [Compound 352]
210 | 29 | 19 | 180 | 6.1 | 11 | Cn1cnnc1C(c1cccc(N2Cc3c(cc(CNC4(C)CCC4)cc3C(F)(F)F)C2=O)c1)[C@H]1C[C@H](Cl)C1 (single isomer, unassigned) [Compound 356]

Continued, compound first:

Compound | Kd [1] [nM] | IC50 [2] [nM] | Kd [3] [nM] | IC50 [4] [nM] | fold-selectivity (Cbl-b over C-cbl) [2] [x] | Fold of selectivity [3] [×]
Cn1cnnc1[C@H](c1cccc(N2Cc3c(cc(CNC4(C)CCC4)cc3C(F)(F)F)C2=O)c1)C1CCOCC1.O=CO (single isomer, unassigned) [Compound 291, (S)-2-(3-((4-methyl-4H-1,2,4-triazol-3-yl)(tetrahydro-2H-pyran-4-yl)methyl)phenyl)-6-(((1-methylcyclobutyl)amino)methyl)-4-(trifluoromethyl)isoindolin-1-one formate] | 130 | 11 | 62 | 47 | – | –
Cn1cnnc1C1(c2cccc(N3Cc4c(cc([C@@H](O)CO)cc4C(F)(F)F)C3=O)c2)CCC1 (single isomer, unassigned) [Compound 301] | 1400 | 300 | 560 | 590 | 2.0 | 2.8
Cn1cnnc1C1(c2cccc(N3Cc4c(cc([C@H](O)CO)cc4C(F)(F)F)C3=O)c2)CCC1 (single isomer, unassigned) [Compound 302] | 1600 | 410 | 410 | 880 | 2.1 | 4.0
Cn1cnnc1[C@@H](c1cccc(N2Cc3c(cc(CNC4(C)CCC4)cc3C(F)F)C2=O)c1)C1COC1 (single isomer, unassigned) [Compound 303] | 28 | 11 | 3.3 | 26 | 2.3 | 8.2
Cn1cnnc1[C@@](O)(c1cccc(N2Cc3c(cc(CNC4(C)CCC4)cc3C(F)(F)F)C2=O)c1)C(F)(F)F (single isomer, unassigned) [Compound 308] | 56 | 27 | 37 | 41 | 1.5 | 1.5
C[C@@H](NC1(C)CCC1)c1cc(Cl)c2c(c1)C(=O)N(c1cccc([C@]3(c4nncn4C)C[C@H](F)C3)c1)C2 (single isomer, unassigned) [Compound 311] | 0.25 | 4 | 0.1 | 4.3 | 1.1 | 2.5
C[C@H](NC1(C)CCC1)c1cc(Cl)c2c(c1)C(=O)N(c1cccc([C@]3(c4nncn4C)C[C@H](F)C3)c1)C2 (single isomer, unassigned) [Compound 312] | 28 | 7.8 | 2 | 27 | 3.5 | 14
CC[C@@H](NC1(C)CCC1)c1cc2c(c(C(F)(F)F)c1)CN(c1cccc([C@@H](c3nncn3C)C3COC3)c1)C2=O (single isomer, unassigned) [Compound 316] | 1300 | 270 | 170 | 3100 | 11 | 7.5
Cn1cnnc1[C@@H](c1cccc(N2Cc3c(Cl)cc(CNC4(C)CCC4)cc3C2=O)c1)[C@H]1C[C@H](F)C1 (single isomer, unassigned) [Compound 318] | 2300 | 280 | 250 | 1600 | 5.6 | 9.6
Cn1cnnc1[C@H](c1cccc(N2Cc3c(Cl)cc(CNC4(C)CCC4)cc3C2=O)c1)[C@H]1C[C@@H](F)C1 (single isomer, unassigned) [Compound 319] | 53 | 12 | 6.4 | 41 | 3.5 | 8.0
Cn1cnnc1[C@H](c1cccc(N2Cc3c(Cl)cc(CNC4(C)CCC4)cc3C2=O)c1)[C@H]1C[C@H](F)C1 (single isomer, unassigned) [Compound 320] | 2.2 | 5.6 | 0.4 | 7.5 | 1.3 | 5.5
